Data published in patent US9549906B2, “Compositions and methods for treatment of ocular inflammation and/or pain” (priority 2013, dated 2017).
Entries after “also recorded” stand apart in the source; their conditions may differ.

What was measured:
[1] = cited from earlier work; for stability: acidic solutions, heat, air and light
[2] = test system: corneal hypersensitivity to capsaicin; test: Corneal hyperalgesia model (silver nitrate cauterization), blinks to topical 1 μM capsaicin; type: in vivo, murine
Excerpt: The chemical cauterization model of corneal inflammation and hyperalgesia is an established model to look at corneal sensitization and pain. Chemical cauterization of the murine cornea using topical silver nitrate produces non-specific inflammation followed by chronic behavioral sensitization to subsequent chemical stimuli (modified from Wenk & Honda, 2003).
The corneal reflex blink test provides a behavioral assessment of corneal sensitization and hyperalgesia (decreased pain threshold). The hyperalgesia (defined as increased responsiveness to painful stimuli) is gauged by quantifying the number and frequency of a protective blinking response in the treated eye (stimulus-induced blinking) relative to control non-sensitized eyes (Wenk and Honda 2003). Anti-inflammatory agents and agents that act at targets on nociceptive nerves can reduce development of corneal sensitization and hyperalgesic activity (reduced protective blinking response in response to noxious irritant).
Using a model characterized by Wenk & Honda, 2003, chemical cauterization using silver nitrate application to the cornea was used to create a corneal hypersensitivity model. Hypersensitivity was determined by assessing blinks to an ocular topical application of 1 μM capsaicin. The blink response is one measure of the level of corneal hyperalgesia. Increased blinking in response to capsaicin in a cauterized eye indicates a higher level of pain (FIG. 9).
In a model of corneal hyperalgesia, chemical cauterization of the cornea produces corneal epithelial damage, corneal edema and inflammation. […] The effect of repeated dosing with the CB2 allosteric modulator, CBD-DMH, or the cannabinoid Δ^9THC that acts as an agonist at CB1 and CB2 receptors, was tested to determine if these agents could prevent the development of hyperalgesia. Animals were videoed before and after capsaicin administration using a handheld device and video images were analyzed off-line by an observer blinded to the treatment. […]

[3] = test system: endotoxin-induced uveitis (EIU) model; test: LPS-induced uveitis (EIU) in mice, intravital microscopy of adherent leukocytes; type: in vivo, BALB/c Mice; settings: CBD-DMH 10 mg/kg i.v. once right after intravitreal LPS; IVM at 5 hours
Procedure: Two different EIU experimental groups were examined in BALB/c Mice: • Group (A): Intravital microscopy (IVM) at 5 hours after intravitreal injection of saline (control) • Group (B): IVM at 5 hours after induction of EIU and i.v. administration of drug vehicle control (1 time, 0.2 mL 30% ethanol in saline right after intravitreal injection) • Group (C): IVM at 5 hours after induction of EIU and i.v. administration of cannabinoid (1 time, 0.2 mL 10 mg/kg CBD-DMH right after intravitreal injection).
The strain of animals chosen for these experiments was based on preliminary testing conducted and published literature (see, for example: Toguri et al., 2014). […] Depth of anesthesia was monitored via toe pinch test. […]
The technique of intravital microscopy (IVM) was used for in vivo investigation of leukocyte recruitment. The intravital fluorescence video microscope was focused on the iridial microcirculation, which allowed for imaging of the leukocyte-endothelial interactions. […] In each video, leukocyte recruitment was observed and recorded for 30 seconds each. […]
Several videos of each quadrant were recorded for 30 seconds. Leukocyte adhesion was the parameter analyzed. […] The number of adherent leukocytes within each vessel segment was calculated by measuring the diameter and length of vessel segment studied, assuming a cylindrical geometry of blood vessel. […]

CB2 [4] = target: T1, CB2 (Homo sapiens, UniProt P34972); settings: cited from earlier work
dispase-induced PVR = test: Dispase model of proliferative vitreoretinopathy (PVR): clinical score, histopathology, Iba1 microglia; settings: 10 mg/kg i.p. daily for 7 days
CB2 [5] = target: T1, CB2; test: In vitro CB2-dependent G protein signalling, overall conclusion (ERK, PLCβ3, cAMP); type: cell-based; parameters: expressed in transfected cells; host or cells: HEK 293A cells (transient transfection)
Procedure: Following 30 min treatment cells were lysed and cAMP activity was measured at 405 nm (RLU, relative light units). Concentration-response curves were fit using non-linear regression analysis (GraphPad Prism, version 5.0).

[6] = test system: endotoxin-induced uveitis (EIU) model; test: Endotoxin-induced uveitis (EIU) in rats, intravital microscopy of leukocyte-endothelial adhesion; type: in vivo, male Lewis rats
Procedure: The endotoxin-induced uveitis (EIU) model is a widely used animal model of human bacterially-derived uveitis, involving inflammation of the uveal tract. The uveal tract comprises the middle layer of the eye, including the iris, ciliary body and […].
EIU was induced in male Lewis rats by intravitreal injection of 100 ng of lipopolysaccharide (LPS, Escherichia coli) in saline. Treatments of the cannabinoid 2 receptor (CB2R) agonist, HU-433 were administered, in the presence and absence of the selective antagonist, AM630. Cannabinoid treatments involved intravenous (i.v.) HU-433 (0.001-1 mg/kg), AM630 (2.5 mg/kg i.v.) and AM630+HU-433, administered 15 minutes after intravitreal injection of LPS. Intravital microscopy (IVM) was used to observe leukocyte-endothelial adhesion each hour after induction of EIU for a duration of 6 hours.
Data in FIG. 1 was collected from experiments using an animal model of ocular inflammation called endotoxin-induced uveitis. […] The level of inflammation is quantified by counting the number of adherent leukocytes in the iris microcirculation. Leukocytes must adhere to the microvasculature for more than 30 s (measured as adherent leukocytes per mm^2). Imaging was conducted in a minimum of 4 quadrants within the eye, 4 vessels each quadrant, 6 hours after inflammation was induced.
The strain of animals chosen for these experiments was based on preliminary testing conducted and published literature (see, for example: Toguri et al., 2014). The strain of mice chosen was BALB/c and Lewis rats were used. Animals were anesthetised prior to induction of uveitis. Mice were anesthetized with 5% isoflurane in 100% oxygen. Rats were anesthetized with 65 mg·kg^−1 of sodium pentobarbital. Depth of anesthesia was monitored via toe pinch test. The head of the animal was immobilized, and the sclera of the left eye was punctured with a 30-gauge needle at the dorsonasal quadrant at approximately the level of the equator. Mice received a total of 250 ng of LPS (E. coli 026:B6; Sigma-Aldrich, Oakville, ON, Canada) in 2 μl of sterile 0.9% saline. Rats received a total of 100 ng of LPS in 5 μl of sterile 0.9% saline. Intravitreal injections were made under microscopic control with a Hamilton syringe (Hamilton Company, Reno, Nev., USA), with a 30 G1/6 needle. To avoid touching the lens or causing any damage to the eye, the tip of the needle was directed towards the posterior pole and only the bevelled tip (2-3 mm) entered the vitreal cavity. The needle was held in place after injection for 5 seconds to avoid leakage of the LPS from the site of injection (sclerostomy). Sclerostomy was closed by tissue adhesive to prevent any leakage. Animals with bleeding or swelling post injection were excluded from the study.

[7] = test system: experimental models of sepsis; test: Experimental models of sepsis; type: in vivo
CB2 [8] = target: T1, CB2; test: In-Cell western, PLCβ3 phosphorylation (Gαq) in HEK 293A cells transfected with hCB2; type: cell-based; parameters: expressed in transfected cells; settings: HEK293-A; percentage of the maximal response to the agonist CP 55,940; read-out: Emax (%) ± SEM, PLCβ3 (Gαq)
Procedure: HEK cells were maintained at 37° C., 5% CO2 in Dulbecco's Modified Eagle's Medium (DMEM) supplemented with 10% Fetal Bovine Serum (FBS) and 10^4 U·mL^−1 Pen/Strep.
For In-Cell™ western analyses, cells were fixed for 10 min at room temperature with 4% paraformaldehyde and washed three times with 0.1 M PBS for 5 min each. Cells were incubated with blocking solution (0.1 M PBS, 5% normal goat serum, 0.3% TritonX-100, in dH2O) for 1 h at room temperature. Cells were treated with primary antibody diluted in antibody dilution buffer [0.1 M PBS, 1% (w/v) BSA, 0.3% TritonX-100, in dH2O] overnight at 4° C. Primary antibody solutions were: pERK1/2(Tyr205/185) (1:200), ERK1/2 (1:200), pPLCβ3(S537) (1:500), PLCβ3 (1:1000), or β-actin (1:2000; Santa Cruz Biotechnology). Cells were washed three times with 0.1 M PBS for 5 min each. Cells were then incubated in IR^CW800dye (1:500; Rockland Immunochemicals, Gilbertsville, Pa., USA) for 1 h at room temperature. Cells were washed three times with 0.1 M PBS for 5 min each. Cells were allowed to air-dry overnight.
In-Cell™ data were collected using the Odyssey Imaging system and software (version 3.0; Li-Cor, Lincoln, Nebr., USA).
Goodness of fit to non-linear regression models was tested in GraphPad (v. 5.0, Prism). […]

T1 sequence (P34972 whole entry): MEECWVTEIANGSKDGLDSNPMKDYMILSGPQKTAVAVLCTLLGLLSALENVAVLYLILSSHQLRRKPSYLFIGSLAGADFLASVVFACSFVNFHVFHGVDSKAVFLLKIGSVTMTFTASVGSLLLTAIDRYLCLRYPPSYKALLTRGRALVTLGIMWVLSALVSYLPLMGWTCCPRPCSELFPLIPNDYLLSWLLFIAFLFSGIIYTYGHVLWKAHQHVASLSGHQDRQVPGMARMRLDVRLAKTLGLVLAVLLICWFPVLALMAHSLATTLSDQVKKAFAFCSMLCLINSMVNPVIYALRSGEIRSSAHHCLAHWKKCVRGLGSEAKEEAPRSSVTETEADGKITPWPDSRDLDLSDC

**Q.** For `CCCCCc1cc(O)c2c(c1)OC(C)(C)[C@@H]1CCC(C)=C[C@@H]21` [THC], which stability [1] is on record?
**A.** unstable in acidic solutions and when exposed to heat, air and light

**Q.** With `C=C1CC/C=C(\C)CC[C@@H]2[C@@H]1CC2(C)C` [Beta-C, β-caryophyllene] as the compound, how does the corneal hyperalgesia ([2]; Beta-C, dose not given) read?
**A.** appeared to also produce a reduction in hyperalgesia

**Q.** Which “number of adherent leukocytes” value [3] does the source give for `C=C(C)[C@@H]1CCC(C)=C[C@H]1c1c(O)cc(C(C)(C)CCCCCC)cc1O` [CBD-DMH, cannabidiol-dimethylheptyl] here?
**A.** decrease in number of adherent leukocytes

**Q.** What about the “potency relative to CBD” value (CB2 [4]; analgesic and anti-inflammatory effects in animal models) of the same compound?
**A.** more than 10 fold

**Q.** And the psychoactivity (CB2 [4])?
**A.** non-psychotropic

**Q.** And the “clinical score of PVR (scale 0-5)” value (dispase-induced PVR)?
**A.** significantly decreased

**Q.** And the “histological score of PVR (scale 0-4)” value (dispase-induced PVR)?
**A.** significantly decreased

**Q.** What about the “mean number of blinks for 1 minute to 1 μM capsaicin” value ([2]; 6 hours post corneal insult, 3 doses topical 5% CBD-DMH, 1-way ANOVA p<0.05) of the same compound?
**A.** statistically significant decrease in blinks compared to untreated and vehicle treated eyes

**Q.** What about the “corneal hypersensitivity (blinks over 1 minute to 1 μM capsaicin)” value ([2]; unilateral cauterized eye, 3 doses ocular topical 5% CBD-DMH) of the same compound?
**A.** eliminates this hypersensitivity; also recorded: reduces hypersensitivity in a comparable matter to ocular topical NSAID; also recorded: eliminated hypersensitivity to capsaicin

**Q.** What about the “activation of CB2 in the absence of the orthosteric agonist CP55940” value (CB2 [5]) of the same compound?
**A.** does not activate CB2

**Q.** And the “effect on potency and efficacy of the orthosteric CB2 agonist CP55940” value (CB2 [5])?
**A.** enhances the potency and efficacy

**Q.** What about the “mode of action on CB2-dependent G protein signalling” value (CB2 [5]) of the same compound?
**A.** positive allosteric modulator

**Q.** Which “number of adherent leukocytes in the iris microcirculation” value ([6]; HU-433 0.1 mg/kg i.v., 6 hours after intravitreal LPS, 0.1 mg/kg) does the source give for `CCCCCCC(C)(C)c1cc(OC)c(C2C=C(CO)C3CC2C3(C)C)c(OC)c1` (stereo not shown) [HU-433] here?
**A.** significantly (p<0.05) reduce; also recorded: fewer adherent leukocytes

**Q.** And the “leukocyte-endothelial adhesion (inflammation)” value ([6]; HU-433 i.v. 0.01 and 0.1 mg/kg, 6 hours after induction of EIU)?
**A.** significantly (p<0.01) reduced

**Q.** And the “local release of inflammatory mediators” value ([6]; acute EIU)?
**A.** decreases local release of inflammatory mediators

**Q.** What about the “potency in reducing ocular inflammation relative to HU-308” value ([6]; experimental uveitis) of the same compound?
**A.** more potent than HU-308

**Q.** What about the psychoactivity (CB2 [4]) of the same compound?
**A.** no psychoactivity

**Q.** And the “potency relative to HU-308” value (CB2 [4]; in vitro and in vivo systems)?
**A.** 2-3 orders of magnitude

**Q.** What about the “potency in mitigating inflammation relative to HU-308” value [7] of the same compound?
**A.** more potent than HU-308

**Q.** Which Emax (CB2 [8]) does the source give for `C=C(C)[C@@H]1CCC(C)=C[C@H]1c1c(O)cc(CCCCC)cc1O` [CBD, cannabidiol] here?
**A.** 51.7 ± 7.04%

**Q.** And the “mode of action on CB2-dependent G protein signalling” value (CB2 [5])?
**A.** partial agonist

**Q.** And the stability [1]?
**A.** unstable in acidic solutions and when exposed to heat, air and light

**Q.** What about the water solubility [1] of the same compound?
**A.** poorly water-soluble

**Q.** What does the source list for `COc1ccc(C(=O)c2c(C)n(CCN3CCOCC3)c3cc(I)ccc23)cc1` [AM630, reference compound]?
**A.** number of adherent leukocytes to the microvasculature, antagonist alone ([6]; AM630 2.5 mg/kg i.v. alone, p<0.01): significant increase; effect of CB2R antagonist pre-treatment on the agonist's decrease in leukocyte adhesion ([6]; AM630 2.5 mg/kg i.v. prior to CB2R agonist in EIU): abolished
